Reference: PubChem BioAssay (NCI)
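Step 1: Grow cells in 96-well plates. Step 2: Expose to compound for 48 hours at 5 concentrations. Step 3: Interpolate endpoints linearly; if unreached, use highest concentration. Definition used: TGI = concentration required for complete inhibition of growth.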

Tests used:
Assay in all cases: growth of human tumour cells (NCI), 48 h
[1] = system: HOP-92 NSCLC
[2] = system: NCI-H522 lung
[3] = system: CCRF-CEM leukemia
[4] = system: SK-MEL-5 melanoma
[5] = system: SR leukemia
[6] = system: SF-295 CNS
[7] = system: HCT-116 colon
[8] = system: MCF7 breast
[9] = system: RPMI-8226 leukemia
[10] = system: OVCAR-4 ovarian

SMILES | TGI [1] [µM] | TGI [2] [µM] | TGI [3] [µM] | TGI [4] [µM] | TGI [5] [µM] | TGI [6] [µM] | TGI [7] [µM] | TGI [8] [µM] | TGI [9] [µM] | TGI [10] [µM]
O=C1c2ccccc2C(=O)c2c1oc1cc(O)c(Cl)cc21 | 25.9 | 26.9 | 55.3 | 1.58 | > 54.6 | 9.46 | 15.1 | 25.2 | 55.3 | 23.4
CN(C)c1n2c3ccc([N+](=O)[O-])cc3n3c(N(C)C)[n+]4ccccc4c3c2c2cccc[n+]12 | > 100 | > 100 | > 100 | > 100 | > 100 | > 100 | > 100 | > 100 | > 100 | > 100
O=C(Nn1c(-c2ccccc2)nc2ccccc2c1=O)c1cccc([N+](=O)[O-])c1 | > 100 | > 100 | > 100 | > 100 | > 100 |  | > 100 | > 100 | > 100 | > 100
Nc1c(F)c(F)c2c(c1F)N(CCCCCl)c1ccccc1S2 | > 100 | > 100 | > 100 | > 100 | > 100 | > 100 | > 100 | > 100 | > 100 | > 100
COc1ccccc1/C=C1\CCC(Cc2ccccc2)(CN(C)C)C1=O (stereo not given) | 66.2 | 2.1 | 24.4 | 11.9 | 3.53 | > 63.1 | 39.4 | 25.6 | 39.1 | > 100
N#Cc1c(-c2ccccc2)cn(C(=O)c2ccccc2)c1N | > 100 | > 100 | > 100 | > 100 | > 100 | > 100 | > 100 | > 100 | > 100 | > 100
CC1(C)N=C(C(N)=O)c2ncn(Cc3ccccc3)c2N1 | > 100 | > 100 | > 100 | > 100 | > 100 | > 100 | > 100 | > 100 | > 100 | > 100
CO[P@@]1(=O)O[C@@H](c2ccccc2)[C@H](O)[C@@]1(O)c1ccccc1 | > 100 | > 100 | > 100 | > 100 | 74.7 | > 100 | > 100 | > 100 |  | > 100
CC1(C)CC(=O)c2c(-c3ccc(Cl)cc3)c(C#N)c(=S)n(C3OC(CO)C(O)C(O)C3O)c2C1 (stereo not given) | 96.7 | > 100 | > 100 | 34.8 | > 100 | > 100 | > 100 | > 100 | > 100 | > 100
CCOC(=O)N1c2ccccc2N(C(=O)OCC)C1CC(=O)/C=C/c1ccccc1 | 6.16 | 6.42 | 4.61 | 8.92 | 5.75 | 21.7 | 11.6 | 13.6 | 26.6 | 6.33
CC/C(Cl)=N\OC(=O)Nc1ccc(F)c(Cl)c1 | 9.41 | 3.44 | 4.91 | 29 | 13.1 | 33.1 | 35.3 | 20.1 | > 100 | 31.1
Cc1c2c(n3c(nc4ccccc43)c1C#N)N(c1ccc(F)cc1)CC2 | > 100 | > 100 | > 100 | > 100 | > 100 | > 100 | > 100 | > 100 |  | > 100
O=c1ccn(C/C=C/c2ccccc2)c(=S)n1C/C=C/c1ccccc1 | > 100 | > 100 | 62.9 | > 100 | > 100 | > 100 | > 100 | > 100 |  | > 100
Cc1nc(C)c(N2CCN(Cc3ccccc3)CC2)c(=O)[nH]1 | > 100 | > 100 | > 100 | > 100 | > 100 | > 100 | > 100 | > 100 | > 100 | > 100
CCCCCN1C(=O)C(Cc2ccccc2)N=C(c2ccc(O)cc2)c2cc(Cl)ccc21 (stereo not given) | 25 | 17.2 | > 100 |  | 15.3 | 20.7 | 21.5 | 24.8 | 12.1 | 22.1
